Converted amounts (≈) assume the structure as drawn.
Tests used:
E. coli 25922 = assay: Antibacterial activity, microbroth dilution MIC (Table 1); format: cell-based, Escherichia coli; details: Escherichia coli; microbroth dilution; control Gram-negative E. coli 25922 strain; read-out: MIC, 25922
Outline: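 Potency is reported as minimum inhibitory concentration in μg/mL, determined by broth microdilution as the lowest level of compound that stops growth visible to the eye.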

E. coli LZ3111 = assay: Antibacterial activity, MIC, quinolone resistant strain (Table 2); format: cell-based; details: Escherichia coli, LZ3111, read-out: MIC LZ3111
Outline: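 Growth inhibition assessed by serial drug dilution in broth; endpoint was absence of macroscopically visible growth, reported as MIC, μg/mL.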

[1] = test system: Klebsiella pneumoniae (K. pneumoniae) 35657; assay: Antibacterial activity, MIC (Table 4); format: cell-based; details: K. pneumoniae 35657, read-out: MIC, 35657
Source text: (§1) The antibacterial activity from a microbroth dilution method may be presented as the minimum inhibitory concentration (MIC in μg/mL). The MIC value is the lowest concentration of drug which prevents macroscopically visible growth under test conditions.
(§2) Antibacterial activity of test compounds against the Gram-negative Acinetobacter baumannii (A. baumannii) BAA747 and Klebsiella pneumoniae (K. pneumoniae) 35657 bacterium and the resistant A. baumannii MXX2240 and K. pneumoniae MXX1232 strains are shown in Table 4. The MMX strains are multi-drug resistant clinical isolates.

[2] = test system: Acinetobacter baumannii (A. baumannii) BAA747; assay: Antibacterial activity, MIC (Table 4); format: cell-based; details: A. baumannii BAA747, read-out: MIC, BAA747
Source text: as §1, §2

[3] = test system: Escherichia coli (E. coli) BAS849; assay: Antibacterial activity, microbroth dilution MIC (Table 1); format: cell-based; details: microbroth dilution, super sensitive Gram-negative E. coli BAS849, read-out: MIC, BAS849
Outline: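 Values are MICs (μg/mL): the smallest drug amount at which macroscopically visible bacterial growth is absent under assay conditions, from a microdilution method in broth.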

[4] = test system: Staphylococcus aureus (S. aureus) 29213; assay: as above; format: cell-based; details: microbroth dilution, Gram-positive S. aureus 29213, read-out: MIC, 29213
Outline: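 Each strain is exposed to test compound in a microbroth dilution series; visible growth is scored macroscopically, and the lowest growth-free concentration is recorded as MIC in μg/mL.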

K. pneumoniae MXX1232 = assay: Antibacterial activity, MIC, resistant strain (Table 4); format: cell-based; details: Klebsiella pneumoniae, MXX1232; resistant K. pneumoniae MMX1232, multi-drug resistant clinical isolate; read-out: MIC, MMX1232
Source text: as §1, §2

A. baumannii MXX2240 = assay: as above; format: cell-based; details: Acinetobacter baumannii, MXX2240; resistant A. baumannii MMX2240, multi-drug resistant clinical isolate; read-out: MIC, MMX2240
Source text: as §1, §2

[5] = test system: Pseudomonas aeruginosa (P. aeruginosa) 27853; assay: Antibacterial activity, MIC (Table 5); format: cell-based; details: P. aeruginosa 27853, read-out: MIC, 27853
Source text: as §1
Antibacterial activity of test compounds against the Gram-negative bacterium Pseudomonas aeruginosa (P. aeruginosa) 27853 is shown in Table 5.

| SMILES | MIC (E. coli 25922) [µg/mL] | MIC (E. coli LZ3111) [µg/mL] | MIC [1] [µg/mL] | MIC [2] [µg/mL] | MIC [3] [µg/mL] | MIC [4] [µg/mL] | MIC (K. pneumoniae MXX1232) [µg/mL] | MIC (A. baumannii MXX2240) [µg/mL] | MIC [5] [µg/mL] |
| --- | --- | --- | --- | --- | --- | --- | --- | --- | --- |
| C=CCc1c(-c2ccc3c(c2)cc(CN(C)C)n3C)[nH]c(=O)c(C(=O)O)c1O [Cpd 339, 5-allyl-6-(2-((dimethylamino)methyl)-1-methyl-1H-indol-5-yl)-4-hydroxy-2-oxo-1,2-dihydropyridine-3-carboxylic acid] | < 1 | 3.5 to 12.5 (≈ 9.18 to 32.8 µM) | 1 to 3.5 (≈ 2.62 to 9.18 µM) | 3.5 to 12.5 (≈ 9.18 to 32.8 µM) | < 1 | 3.5 to 12.5 (≈ 9.18 to 32.8 µM) | 12.5 to 150 (≈ 32.8 to 393 µM) | 3.5 to 12.5 (≈ 9.18 to 32.8 µM) | 12.5 to 150 (≈ 32.8 to 393 µM) |
| CCCc1c(-c2ccc3c(c2)cc(CN(C)C)n3C)[nH]c(=O)c(C(=O)O)c1O [Cpd 340, 6-(2-((dimethylamino)methyl)-1-methyl-1H-indol-5-yl)-4-hydroxy-2-oxo-5-propyl-1,2-dihydropyridine-3-carboxylic acid] | 3.5 to 12.5 (≈ 9.13 to 32.6 µM) | 3.5 to 12.5 (≈ 9.13 to 32.6 µM) | 3.5 to 12.5 (≈ 9.13 to 32.6 µM) | 12.5 to 150 (≈ 32.6 to 391 µM) | < 1 | 12.5 to 150 (≈ 32.6 to 391 µM) | 12.5 to 150 (≈ 32.6 to 391 µM) | 3.5 to 12.5 (≈ 9.13 to 32.6 µM) | 12.5 to 150 (≈ 32.6 to 391 µM) |
| COCCNCc1cc2cc(-c3[nH]c(=O)c(C(=O)O)c(O)c3C)ccc2n1C [Cpd 341, 4-hydroxy-6-(2-((2-methoxyethylamino)methyl)-1-methyl-1H-indol-5-yl)-5-methyl-2-oxo-1,2-dihydropyridine-3-carboxylic acid] | 3.5 to 12.5 (≈ 9.08 to 32.4 µM) | < 1 | 3.5 to 12.5 (≈ 9.08 to 32.4 µM) | 3.5 to 12.5 (≈ 9.08 to 32.4 µM) | < 1 | 12.5 to 150 (≈ 32.4 to 389 µM) | 12.5 to 150 (≈ 32.4 to 389 µM) | 1 to 3.5 (≈ 2.59 to 9.08 µM) | 12.5 to 150 (≈ 32.4 to 389 µM) |
| CCNCc1cc2cc(-c3[nH]c(=O)c(C(=O)O)c(O)c3C)ccc2n1C [Cpd 342, 6-(2-((ethylamino)methyl)-1-methyl-1H-indol-5-yl)-4-hydroxy-5-methyl-2-oxo-1,2-dihydropyridine-3-carboxylic acid] | 1 to 3.5 (≈ 2.81 to 9.85 µM) | < 1 | < 1 | 3.5 to 12.5 (≈ 9.85 to 35.2 µM) | < 1 | 12.5 to 150 (≈ 35.2 to 422 µM) | 12.5 to 150 (≈ 35.2 to 422 µM) | 1 to 3.5 (≈ 2.81 to 9.85 µM) | 12.5 to 150 (≈ 35.2 to 422 µM) |
| Cc1c(-c2ccc3c(c2)cc(CNCCN)n3C)[nH]c(=O)c(C(=O)O)c1O [Cpd 343, 6-(2-((2-aminoethylamino)methyl)-1-methyl-1H-indol-5-yl)-4-hydroxy-5-methyl-2-oxo-1,2-dihydropyridine-3-carboxylic acid] | 12.5 to 150 (≈ 33.7 to 405 µM) | 12.5 to 150 (≈ 33.7 to 405 µM) | 12.5 to 150 (≈ 33.7 to 405 µM) | 12.5 to 150 (≈ 33.7 to 405 µM) | 12.5 to 150 (≈ 33.7 to 405 µM) | 12.5 to 150 (≈ 33.7 to 405 µM) | 12.5 to 150 (≈ 33.7 to 405 µM) | 12.5 to 150 (≈ 33.7 to 405 µM) | 12.5 to 150 (≈ 33.7 to 405 µM) |
| CNCCNCc1cc2cc(-c3[nH]c(=O)c(C(=O)O)c(O)c3C)ccc2n1C [Cpd 344, 4-hydroxy-5-methyl-6-(1-methyl-2-((2-(methylamino)ethylamino)methyl)-1H-indol-5-yl)-2-oxo-1,2-dihydropyridine-3-carboxylic acid] | 12.5 to 150 (≈ 32.5 to 390 µM) | 12.5 to 150 (≈ 32.5 to 390 µM) | 12.5 to 150 (≈ 32.5 to 390 µM) | 12.5 to 150 (≈ 32.5 to 390 µM) | 12.5 to 150 (≈ 32.5 to 390 µM) | 12.5 to 150 (≈ 32.5 to 390 µM) | 12.5 to 150 (≈ 32.5 to 390 µM) | 12.5 to 150 (≈ 32.5 to 390 µM) | 12.5 to 150 (≈ 32.5 to 390 µM) |
| Cc1c(-c2ccc3c(c2)cc(CNCCN(C)C)n3C)[nH]c(=O)c(C(=O)O)c1O [Cpd 345, 6-(2-((2-(dimethylamino)ethylamino)methyl)-1-methyl-1H-indol-5-yl)-4-hydroxy-5-methyl-2-oxo-1,2-dihydropyridine-3-carboxylic acid] | 12.5 to 150 (≈ 31.4 to 376 µM) | 1 to 3.5 (≈ 2.51 to 8.78 µM) | 12.5 to 150 (≈ 31.4 to 376 µM) | 12.5 to 150 (≈ 31.4 to 376 µM) | 3.5 to 12.5 (≈ 8.78 to 31.4 µM) | 12.5 to 150 (≈ 31.4 to 376 µM) | 12.5 to 150 (≈ 31.4 to 376 µM) | 12.5 to 150 (≈ 31.4 to 376 µM) | 12.5 to 150 (≈ 31.4 to 376 µM) |
| COCC(C)NCc1cc2cc(-c3[nH]c(=O)c(C(=O)O)c(O)c3C)ccc2n1C (stereo not drawn) [Cpd 346, 4-hydroxy-6-(2-((1-methoxypropan-2-ylamino)methyl)-1-methyl-1H-indol-5-yl)-5-methyl-2-oxo-1,2-dihydropyridine-3-carboxylic acid] | 12.5 to 150 (≈ 31.3 to 376 µM) | 3.5 to 12.5 (≈ 8.76 to 31.3 µM) | 3.5 to 12.5 (≈ 8.76 to 31.3 µM) | 3.5 to 12.5 (≈ 8.76 to 31.3 µM) | < 1 | 12.5 to 150 (≈ 31.3 to 376 µM) | 12.5 to 150 (≈ 31.3 to 376 µM) | 3.5 to 12.5 (≈ 8.76 to 31.3 µM) | 12.5 to 150 (≈ 31.3 to 376 µM) |
